According to ChEMBL document CHEMBL1201862, “PubChem BioAssay data set” (2004):
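Assay format: 96-well plates, 48-hour exposure. Abbreviation: GI50, concentration required for 50% inhibition of growth.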 Calls of active or inactive are those of the source. Cut-off read from the data, not from the text of the source: active = GI50 up to about 1.1 µM and inactive = higher.

Tests used:
Test in all cases: DTP human tumour cell line panel, 48 h
DU-145 = system: DU-145
786-0 = system: 786-0
MOLT-4 = system: MOLT-4
BT-549 = system: BT-549
HOP-92 = system: HOP-92
UACC-257 = system: UACC-257
UO-31 = system: UO-31
SK-MEL-2 = system: SK-MEL-2
SNB-19 = system: SNB-19
NCI-H23 = system: NCI-H23
Hs-578T = system: Hs-578T
T47D = system: T47D
SW-620 = system: SW-620
OVCAR-8 = system: OVCAR-8
U-251 = system: U-251
SF-539 = system: SF-539
KM12 = system: KM12
CAKI-1 = system: CAKI-1
OVCAR-3 = system: OVCAR-3
K562 = system: K562
IGROV-1 = system: IGROV-1
SF-295 = system: SF-295
TK-10 = system: TK-10
M14 = system: M14
NCI-H226 = system: NCI-H226
A549 = system: A549
HT-29 = system: HT-29
HL-60 = system: HL-60
SNB-75 = system: SNB-75
SF-268 = system: SF-268
RXF 393 = system: RXF 393
A498 = system: A498
SR = system: SR
NCI-H522 = system: NCI-H522
UACC-62 = system: UACC-62
SK-OV-3 = system: SK-OV-3
PC-3 = system: PC-3
ACHN = system: ACHN
HCT-15 = system: HCT-15
COLO 205 = system: COLO 205
RPMI-8226 = system: RPMI-8226
NCI/ADR-RES = system: NCI/ADR-RES
MCF7 = system: MCF7
NCI-H460 = system: NCI-H460
MDA-N = system: MDA-N
OVCAR-5 = system: OVCAR-5
MDA-MB-435 = system: MDA-MB-435
Malme-3M = system: Malme-3M
LOX IMVI = system: LOX IMVI
EKVX = system: EKVX
HCC 2998 = system: HCC 2998
SN12C = system: SN12C
SK-MEL-5 = system: SK-MEL-5
HOP-62 = system: HOP-62
OVCAR-4 = system: OVCAR-4
CCRF-CEM = system: CCRF-CEM
HCT-116 = system: HCT-116
SK-MEL-28 = system: SK-MEL-28
MDA-MB-231 = system: MDA-MB-231

Measured: GI50

COc1c(C(CC(C)C)OC(C)=O)ccc2c1C(=O)OCc1cc(C)cc(O)c1O2 (stereo not drawn)
10.1 µM: HCT-15
inactive: DU-145 12.5 µM | 786-0 15.5 µM | MOLT-4 12.8 µM | BT-549 16.2 µM | HOP-92 11.9 µM | UACC-257 8.47 µM | UO-31 6.95 µM | SK-MEL-2 19.1 µM | SNB-19 14.8 µM | NCI-H23 10.3 µM | Hs-578T 22.1 µM | T47D 11.3 µM | SW-620 17.5 µM | OVCAR-8 16.7 µM | U-251 14.9 µM | SF-539 18.2 µM | KM12 19.3 µM | CAKI-1 16.1 µM | OVCAR-3 10.5 µM | K562 > 100 µM | IGROV-1 16.6 µM | SF-295 14.4 µM | TK-10 17.7 µM | M14 16.7 µM | NCI-H226 14.9 µM | A549 12.4 µM | HT-29 17.8 µM | HL-60 > 100 µM | SNB-75 19.2 µM | SF-268 14.3 µM | RXF 393 18.2 µM | A498 20.3 µM | SR > 100 µM | NCI-H522 13.2 µM | UACC-62 12.7 µM | SK-OV-3 15.8 µM | PC-3 9.73 µM | ACHN 10.5 µM | COLO 205 17.6 µM | RPMI-8226 > 100 µM | NCI/ADR-RES 12.5 µM | MCF7 11.8 µM | NCI-H460 12.6 µM | MDA-N 15.1 µM | OVCAR-5 15.1 µM | MDA-MB-435 13.7 µM | Malme-3M 16.1 µM | LOX IMVI 12.6 µM | EKVX 11.8 µM | HCC 2998 12.8 µM | SN12C 14.2 µM | SK-MEL-5 11.1 µM | HOP-62 18.7 µM | OVCAR-4 13.9 µM | CCRF-CEM > 100 µM | HCT-116 12.6 µM | SK-MEL-28 15.8 µM

COc1cc2c(cc1OCCN1CCN(CCOc3cc4c(cc3OC)C(=O)N3CCC[C@H]3C=N4)CC1)N=C[C@@H]1CCCN1C2=O
> 64.1 µM: HCT-15
inactive: DU-145 37.5 µM | 786-0 17.8 µM | MDA-MB-231 17.6 µM | MOLT-4 2.06 µM | BT-549 21.5 µM | UACC-257 > 56.6 µM | UO-31 35.8 µM | SK-MEL-2 26 µM | SNB-19 35.5 µM | NCI-H23 17.1 µM | Hs-578T 41.6 µM | T47D 25.4 µM | SW-620 19.2 µM | OVCAR-8 35.3 µM | U-251 24.8 µM | SF-539 10.2 µM | KM12 30.8 µM | CAKI-1 14 µM | OVCAR-3 25.9 µM | K562 15 µM | IGROV-1 33.5 µM | SF-295 8.83 µM | TK-10 23.8 µM | M14 25.1 µM | NCI-H226 19.4 µM | A549 > 88.9 µM | HT-29 36 µM | HL-60 4.3 µM | SNB-75 > 76.9 µM | SF-268 13.1 µM | RXF 393 26.1 µM | A498 37.1 µM | NCI-H522 12.1 µM | UACC-62 14.3 µM | SK-OV-3 > 100 µM | PC-3 25.9 µM | ACHN > 39.1 µM | COLO 205 24 µM | RPMI-8226 1.56 µM | NCI/ADR-RES > 100 µM | MCF7 18.2 µM | NCI-H460 13.5 µM | OVCAR-5 26.2 µM | MDA-MB-435 20.8 µM | Malme-3M 9.14 µM | EKVX > 96.6 µM | SN12C 9.46 µM | SK-MEL-5 17.8 µM | HOP-62 30.5 µM | OVCAR-4 > 100 µM | HCT-116 29.5 µM | SK-MEL-28 60 µM
active: HOP-92 0.906 µM | SR 0.362 µM

S=C1NNC(=S)NN1
> 1 µM: HCT-15
active: DU-145 0.316 µM | 786-0 > 1 µM | MDA-MB-231 > 1 µM | MOLT-4 0.258 µM | BT-549 0.522 µM | HOP-92 > 1 µM | UACC-257 > 1 µM | UO-31 > 1 µM | SK-MEL-2 > 1 µM | SNB-19 > 1 µM | NCI-H23 0.251 µM | Hs-578T 0.697 µM | T47D 0.951 µM | SW-620 0.218 µM | OVCAR-8 > 1 µM | U-251 0.583 µM | SF-539 > 1 µM | KM12 > 1 µM | CAKI-1 0.225 µM | OVCAR-3 > 1 µM | K562 0.178 µM | IGROV-1 0.436 µM | SF-295 0.219 µM | TK-10 > 1 µM | M14 0.533 µM | NCI-H226 > 1 µM | A549 > 1 µM | HT-29 0.23 µM | HL-60 > 1 µM | SF-268 0.387 µM | A498 > 1 µM | SR 0.239 µM | NCI-H522 0.432 µM | UACC-62 0.296 µM | SK-OV-3 > 1 µM | PC-3 > 1 µM | ACHN 0.582 µM | COLO 205 > 1 µM | RPMI-8226 0.288 µM | NCI/ADR-RES > 1 µM | MCF7 0.328 µM | NCI-H460 > 1 µM | MDA-N > 1 µM | Malme-3M 0.594 µM | LOX IMVI 0.18 µM | EKVX > 1 µM | HCC 2998 > 1 µM | SN12C 0.198 µM | SK-MEL-5 0.887 µM | HOP-62 0.292 µM | OVCAR-4 > 1 µM | CCRF-CEM 0.342 µM | HCT-116 0.23 µM | SK-MEL-28 > 1 µM

O=C(CCC(NC(=O)OCc1ccccc1)C(=O)OCc1ccccc1)Nc1ccc(OCc2ccccc2)cc1 (stereo not drawn)
inactive: DU-145 > 31.6 µM | 786-0 12.6 µM | MDA-MB-231 15.3 µM | MOLT-4 24.6 µM | BT-549 > 10 µM | HOP-92 > 31.6 µM | UACC-257 > 31.6 µM | UO-31 > 10 µM | SK-MEL-2 > 10 µM | SNB-19 21.7 µM | NCI-H23 16.3 µM | Hs-578T 18.3 µM | T47D 18.8 µM | SW-620 25.7 µM | OVCAR-8 14.1 µM | U-251 17.1 µM | SF-539 > 31.6 µM | KM12 > 31.6 µM | CAKI-1 > 31.6 µM | OVCAR-3 > 84.1 µM | K562 27.2 µM | IGROV-1 > 31.6 µM | SF-295 > 31.6 µM | TK-10 > 31.6 µM | M14 > 75.7 µM | NCI-H226 > 31.6 µM | A549 19.3 µM | HT-29 26.6 µM | HL-60 > 31.6 µM | SNB-75 > 31.6 µM | SF-268 26.4 µM | RXF 393 28.3 µM | A498 > 10 µM | SR 27.3 µM | NCI-H522 > 100 µM | UACC-62 > 31.6 µM | SK-OV-3 > 31.6 µM | PC-3 13.2 µM | ACHN 29.6 µM | COLO 205 25.8 µM | RPMI-8226 > 10 µM | NCI/ADR-RES 17.5 µM | MCF7 13 µM | NCI-H460 15.6 µM | OVCAR-5 > 100 µM | MDA-MB-435 17 µM | Malme-3M > 31.6 µM | LOX IMVI > 31.6 µM | EKVX > 31.6 µM | HCC 2998 > 31.6 µM | SN12C > 31.6 µM | SK-MEL-5 > 10 µM | HOP-62 > 78.7 µM | OVCAR-4 25.2 µM | CCRF-CEM 21.8 µM | HCT-116 11.4 µM | SK-MEL-28 > 31.6 µM
13.1 µM: HCT-15

NCCCCNCCCNC(=O)c1csc(-c2nc(CCN)sc2Cl)n1
inactive: DU-145 > 100 µM | 786-0 > 100 µM | MOLT-4 > 100 µM | BT-549 > 100 µM | HOP-92 8.85 µM | UACC-257 > 100 µM | UO-31 > 100 µM | SNB-19 > 100 µM | NCI-H23 > 100 µM | Hs-578T > 100 µM | T47D > 100 µM | SW-620 > 100 µM | OVCAR-8 > 100 µM | U-251 > 100 µM | SF-539 > 100 µM | KM12 > 100 µM | OVCAR-3 > 100 µM | K562 > 100 µM | IGROV-1 > 100 µM | SF-295 > 100 µM | TK-10 > 100 µM | M14 > 100 µM | NCI-H226 > 100 µM | A549 > 100 µM | HT-29 > 100 µM | HL-60 > 100 µM | SNB-75 > 100 µM | SF-268 > 100 µM | RXF 393 > 100 µM | A498 > 100 µM | UACC-62 > 100 µM | SK-OV-3 > 100 µM | PC-3 > 100 µM | ACHN > 100 µM | COLO 205 > 100 µM | RPMI-8226 > 100 µM | NCI/ADR-RES > 100 µM | MCF7 > 100 µM | NCI-H460 > 100 µM | MDA-N > 100 µM | OVCAR-5 > 100 µM | MDA-MB-435 > 100 µM | Malme-3M > 100 µM | EKVX > 100 µM | HCC 2998 70.8 µM | SN12C > 100 µM | SK-MEL-5 > 100 µM | HOP-62 > 100 µM | CCRF-CEM > 100 µM | HCT-116 > 100 µM | SK-MEL-28 > 100 µM
> 100 µM: HCT-15
